This is an account of results in patent publication US20250129070A1, “BIFUNCTIONAL ANDROGEN RECEPTOR COMPOUNDS” (priority 2023, published 2025).

pEC50, pIC50: −log10 of the molar value. A value given as a limit tells only on which side of the number the result lay.

One assay relates to AR / CBP ternary complex. Description: Ternary complex formation assay (sandwich ELISA, AR capture / CBP detection) in VCaP cell lysates. In kind it is cell-based. The following applies: 1.5 hours treatment, sandwich ELISA (AR capture, CBP or p300 detection). Summed up: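 Anti-AR (AR 441)-coated plates capture AR from lysates of VCaP cells grown ≥3 days at 50K/well in 5% charcoal-stripped FBS, dosed with bifunctional for 1.5 h and lysed 30 min at 4 °C. Co-captured CBP/p300 is probed with rabbit mAb and HRP anti-rabbit, then QuantaRed fluorescence (570/585) is read at 0, 5 and 15 min.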

Another assay concerns VCaP cells. Nature of the assay: VCaP growth inhibition assay. The class given is cell-based. The settings on record: 30 pM R1881, 9 days, CTG. The procedure, abridged:
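Growth read by CTG luminescence after 9-day exposure to compound (final 100 nM–10 fM, 1:5 steps) plus 30 pM R1881, in phenol red-free DMEM with 5% CSS. Cells pre-incubated 72 h before dosing; IC50 by nonlinear 4-parameter regression.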

`CC(=O)N1CCc2c(c(N3CCCc4cc(-c5cnn(C)c5)c(C)cc43)nn2C2CCN(C(=O)C3CCN(c4ncc(C(=O)NC5C(C)(C)C(Oc6ccc(C#N)c(Cl)c6)C5(C)C)cn4)CC3)CC2)C1` (stereo not drawn) [Compound 120, 2-[4-[4-[5-acetyl-3-[7-methyl-6-(1-methylpyrazol-4-yl)-3,4-dihydro-2H-quinolin-1-yl]-6,7-dihydro-4H-pyrazolo[4,3-c]pyridin-1-yl]piperidine-1-carbonyl]-1-piperidyl]-N-[3-(3-chloro-4-cyano-phenoxy)-2,2,4,4-tetramethyl-cyclobutyl]pyrimidine-5-carboxamide] had a pEC50 with AR / CBP ternary complex of more than 9.00. The pIC50 with VCaP cells was not below 10.00.

Take `COc1cc(OC2C(C)(C)C(NC(=O)c3ccc(N4CCC(n5ncc6c5CCC(n5nc(N7CCCc8cc(-c9cnn(C)c9)c(C(F)F)cc87)c7c5CCN(C(C)=O)C7)C6)CC4)cc3)C2(C)C)ccc1C#N` (stereo not drawn) [Compound 265, 4-[4-[5-[5-acetyl-3-[7-(difluoromethyl)-6-(1-methylpyrazol-4-yl)-3,4-dihydro-2H-quinolin-1-yl]-6,7-dihydro-4H-pyrazolo[4,3-c]pyridin-1-yl]-4,5,6,7-tetrahydroindazol-1-yl]-1-piperidyl]-N-[3-(4-cyano-3-methoxy-phenoxy)-2,2,4,4-tetramethyl-cyclobutyl]benzamide]: in the assay on AR / CBP ternary complex, the negative-log EC50 (pEC50) is more than 9.00. In the assay with VCaP cells, this molecule showed a pIC50 not below 10.00.

In turn, `CC(=O)N1CCc2c(c(-c3cccc4cc(-c5cnn(C)c5)ncc34)nn2C2CCN(CC3CCN(c4ncc(C(=O)NC5C(C)(C)C(Oc6ccc(C#N)c(Cl)c6)C5(C)C)cn4)CC3)CC2)C1` (stereo not drawn) [Compound 136, 2-[4-[[4-[5-acetyl-3-[3-(1-methylpyrazol-4-yl)-8-isoquinolyl]-6,7-dihydro-4H-pyrazolo[4,3-c]pyridin-1-yl]-1-piperidyl]methyl]-1-piperidyl]-N-[3-(3-chloro-4-cyano-phenoxy)-2,2,4,4-tetramethyl-cyclobutyl]pyrimidine-5-carboxamide] gave a pEC50 with AR / CBP ternary complex of more than 9.00. The molecule further showed a pIC50 with VCaP cells not below 10.00.

On to `CC(=O)N1CCc2c(c(N3CCCc4cc(-c5cnn(C)c5)c(C(F)F)cc43)nn2C2CCN(C3CC4(CC(Oc5ncc(C(=O)NC6C(C)(C)C(Oc7ccc(C#N)c(Cl)c7)C6(C)C)cn5)C4)C3)CC2)C1` (stereo not drawn) [Compound 385, 2-[6-[4-[5-acetyl-3-[7-(difluoromethyl)-6-(1-methylpyrazol-4-yl)-3,4-dihydro-2H-quinolin-1-yl]-6,7-dihydro-4H-pyrazolo[4,3-c]pyridin-1-yl]-1-piperidyl]spiro[3.3]heptan-2-yl]oxy-N-[3-(3-chloro-4-cyano-phenoxy)-2,2,4,4-tetramethyl-cyclobutyl]pyrimidine-5-carboxamide], for which, in the assay on AR / CBP ternary complex, the negative logarithm of the EC50 (pEC50) is more than 9.00. The negative-log IC50 (pIC50) in the assay on VCaP cells is 9.00 to 10.00.

Regarding `COc1cc(OC2C(C)(C)C(NC(=O)c3ccc(N4CCC(CN5CCC(n6nc(N7CCCc8cc(-c9cnn(C)c9)c(C(F)F)cc87)c7c6CCN(C(C)=O)C7)CC5)C(OC)C4)cc3)C2(C)C)ccc1C#N` (stereo not drawn) [Compound 332, 4-[4-[[4-[5-acetyl-3-[7-(difluoromethyl)-6-(1-methylpyrazol-4-yl)-3,4-dihydro-2H-quinolin-1-yl]-6,7-dihydro-4H-pyrazolo[4,3-c]pyridin-1-yl]-1-piperidyl]methyl]-3-methoxy-1-piperidyl]-N-[3-(4-cyano-3-methoxy-phenoxy)-2,2,4,4-tetramethyl-cyclobutyl]benzamide], the pEC50 in the assay with AR / CBP ternary complex was more than 9.00. The molecule further had a pIC50 with VCaP cells not below 10.00.

As to `CC(=O)N1CCc2c(c(N3CCCc4cc(C#N)c(C(F)F)cc43)nn2C2CCN(CC3C(C)CN(c4ncc(C(=O)NC5C(C)(C)C(Oc6ccc(C#N)c(Cl)c6)C5(C)C)cn4)CC3C)CC2)C1` (stereo not drawn) [Compound 458, 2-[4-[[4-[5-acetyl-3-[6-cyano-7-(difluoromethyl)-3,4-dihydro-2H-quinolin-1-yl]-6,7-dihydro-4H-pyrazolo[4,3-c]pyridin-1-yl]-1-piperidyl]methyl]-3,5-dimethyl-1-piperidyl]-N-[3-(3-chloro-4-cyano-phenoxy)-2,2,4,4-tetramethyl-cyclobutyl]pyrimidine-5-carboxamide], in the assay with AR / CBP ternary complex, the pEC50 was more than 9.00. In the assay on VCaP cells, this molecule had a pIC50 of 9.00 to 10.00.

The molecule `CC(=O)N1CCc2c(c(N3CCCc4cc(-c5cnn(C)c5)c(C(F)F)cc43)nn2C2CN(C3CCN(c4ncc(C(=O)NC5C(C)(C)C(Oc6ccc(C#N)c(Cl)c6)C5(C)C)cn4)CC3)C2)C1` (stereo not drawn) [Compound 11, 2-[4-[3-[5-acetyl-3-[7-(difluoromethyl)-6-(1-methylpyrazol-4-yl)-3,4-dihydro-2H-quinolin-1-yl]-6,7-dihydro-4H-pyrazolo[4,3-c]pyridin-1-yl]azetidin-1-yl]-1-piperidyl]-N-[3-(3-chloro-4-cyano-phenoxy)-2,2,4,4-tetramethyl-cyclobutyl]pyrimidine-5-carboxamide] gave a pEC50 in the assay with AR / CBP ternary complex of 7.00 to 8.00. The same molecule showed a pIC50 in the assay with VCaP cells of 9.00 to 10.00.

As to `CC(=O)N1CCc2c(c(N3CCCc4cc(-c5cnn(C)c5)c(C(F)F)cc43)nn2CCCN(C)c2ncc(C(=O)NC3C(C)(C)C(Oc4ccc(C#N)c(Cl)c4)C3(C)C)cn2)C1` (stereo not drawn) [Compound 44, 2-[3-[5-acetyl-3-[7-(difluoromethyl)-6-(1-methylpyrazol-4-yl)-3,4-dihydro-2H-quinolin-1-yl]-6,7-dihydro-4H-pyrazolo[4,3-c]pyridin-1-yl]propyl-methyl-amino]-N-[3-(3-chloro-4-cyano-phenoxy)-2,2,4,4-tetramethyl-cyclobutyl]pyrimidine-5-carboxamide], the pEC50 in the assay with AR / CBP ternary complex is less than 7.00. Besides, in the assay on VCaP cells, the pIC50 was less than 7.00.

In the case of `Cn1cc(-c2cc3cccc(-c4cc(C5=CCN(CC6CCN(c7ncc(C(=O)NC8C(C)(C)C(Oc9ccc(C#N)c(Cl)c9)C8(C)C)cn7)CC6)CC5)c5c(c4)n(C)c(=O)n5C)c3cn2)cn1` (stereo not drawn) [Compound 243, N-[3-(3-chloro-4-cyano-phenoxy)-2,2,4,4-tetramethyl-cyclobutyl]-2-[4-[[4-[1,3-dimethyl-6-[3-(1-methylpyrazol-4-yl)-8-isoquinolyl]-2-oxo-benzimidazol-4-yl]-3,6-dihydro-2H-pyridin-1-yl]methyl]-1-piperidyl]pyrimidine-5-carboxamide], the negative logarithm of the EC50 (pEC50) in the assay with AR / CBP ternary complex is less than 7.00. In addition, the pIC50 in the assay on VCaP cells was 9.00 to 10.00.

Take `CC(=O)N1CCc2c(c(N3CCCc4cc(-c5cnn(C)c5)c(C(F)F)cc43)nn2C2CCN(CCC3CCN(c4ncc(C(=O)NC5C(C)(C)C(Oc6ccc(C#N)c(Cl)c6)C5(C)C)cn4)CC3)CC2)C1` (stereo not drawn) [Compound 174, 2-[4-[2-[4-[5-acetyl-3-[7-(difluoromethyl)-6-(1-methylpyrazol-4-yl)-3,4-dihydro-2H-quinolin-1-yl]-6,7-dihydro-4H-pyrazolo[4,3-c]pyridin-1-yl]-1-piperidyl]ethyl]-1-piperidyl]-N-[3-(3-chloro-4-cyano-phenoxy)-2,2,4,4-tetramethyl-cyclobutyl]pyrimidine-5-carboxamide]: the negative logarithm of the EC50 (pEC50) with AR / CBP ternary complex is more than 9.00. This molecule had a pIC50 in the assay with VCaP cells not below 10.00.

Turning to `CC(=O)N1CCc2c(c(N3CCCc4cc(-c5cnn(C)c5)c(C(F)F)cc43)nn2C2CCC3(CCCN(c4ncc(C(=O)NC5C(C)(C)C(Oc6ccc(C#N)c(Cl)c6)C5(C)C)cn4)C3)CC2)C1` (stereo not drawn) [Compound 412, 2-[9-[5-acetyl-3-[7-(difluoromethyl)-6-(1-methylpyrazol-4-yl)-3,4-dihydro-2H-quinolin-1-yl]-6,7-dihydro-4H-pyrazolo[4,3-c]pyridin-1-yl]-2-azaspiro[5.5]undecan-2-yl]-N-[3-(3-chloro-4-cyano-phenoxy)-2,2,4,4-tetramethyl-cyclobutyl]pyrimidine-5-carboxamide], the negative-log EC50 (pEC50) with AR / CBP ternary complex is less than 7.00. The negative logarithm of the IC50 (pIC50) in the assay on VCaP cells was less than 7.00.

For the molecule `CC(=O)N1CCc2c(c(Nc3ccc(-c4cnn(C)c4)cc3F)nn2C2CCN(C(=O)CC3CCN(c4ncc(C(=O)NC5C(C)(C)C(Oc6ccc(C#N)c(Cl)c6)C5(C)C)cn4)CC3)CC2)C1` (stereo not drawn) [Compound 178, 2-[4-[2-[4-[5-acetyl-3-[2-fluoro-4-(1-methylpyrazol-4-yl)anilino]-6,7-dihydro-4H-pyrazolo[4,3-c]pyridin-1-yl]-1-piperidyl]-2-oxo-ethyl]-1-piperidyl]-N-[3-(3-chloro-4-cyano-phenoxy)-2,2,4,4-tetramethyl-cyclobutyl]pyrimidine-5-carboxamide], the pEC50 with AR / CBP ternary complex is more than 9.00. For the same molecule, the pIC50 in the assay with VCaP cells is 9.00 to 10.00.

In the assay with AR / CBP ternary complex, `CC(=O)N1CCc2c(c(N3CCCc4cc(-c5cnn(C)c5)c(C(F)F)cc43)nn2CCCOc2ncc(C(=O)NC3C(C)(C)C(Oc4ccc(C#N)c(Cl)c4)C3(C)C)cn2)C1` (stereo not drawn) [Compound 43, 2-[3-[5-acetyl-3-[7-(difluoromethyl)-6-(1-methylpyrazol-4-yl)-3,4-dihydro-2H-quinolin-1-yl]-6,7-dihydro-4H-pyrazolo[4,3-c]pyridin-1-yl]propoxy]-N-[3-(3-chloro-4-cyano-phenoxy)-2,2,4,4-tetramethyl-cyclobutyl]pyrimidine-5-carboxamide] gave a negative-log EC50 (pEC50) of less than 7.00. Further, in the assay on VCaP cells, the negative-log IC50 (pIC50) is less than 7.00.

As to `COc1cc(OC2C(C)(C)C(NC(=O)c3ccc(N4CCC(C5CN(c6ccc(-c7cc8cccc(-c9nn(C%10CCOCC%10)c%10c9CN(C(C)=O)CC%10)c8cn7)cn6)C5)CC4)cc3)C2(C)C)ccc1C#N` (stereo not drawn) [Compound 268, 4-[4-[1-[5-[8-(5-acetyl-1-tetrahydropyran-4-yl-6,7-dihydro-4H-pyrazolo[4,3-c]pyridin-3-yl)-3-isoquinolyl]-2-pyridyl]azetidin-3-yl]-1-piperidyl]-N-[3-(4-cyano-3-methoxy-phenoxy)-2,2,4,4-tetramethyl-cyclobutyl]benzamide], the negative-log EC50 (pEC50) in the assay on AR / CBP ternary complex was more than 9.00. In the assay with VCaP cells, the negative-log IC50 (pIC50) is 9.00 to 10.00.

In the case of `CC(=O)N1CCc2c(c(N3CCCc4cc(-c5cnn(C)c5)c(C(F)F)cc43)nn2C2CCN(CC3CCN(c4ncc(C(=O)NC5C(C)(C)C(Oc6ccc(C#N)c(Cl)c6)C5(C)C)nn4)CC3)CC2)C1` (stereo not drawn) [Compound 152], the pEC50 with AR / CBP ternary complex is less than 7.00. Also, in the assay on VCaP cells, the negative logarithm of the IC50 (pIC50) was not below 10.00.

One may read the pEC50 as the EC50 on a negative log10 scale, so that one unit is a factor of ten. A low value points to a large EC50. For orientation: pIC50 means the negative decadic logarithm of the IC50, by convention in mol/L.
